The record followed here is ChEMBL document CHEMBL5214989, “Overcoming Preclinical Safety Obstacles to Discover (S)-N-((1,2,3,5,6,7-Hexahydro-s-indacen-4-yl)carbamoyl)-6-(methylamino)-6,7-dihydro-5H-pyrazolo[5,1-b][1,3]oxazine-3-sulfonamide (GDC-2394): A Potent and Selective NLRP3 Inhibitor” (J Med Chem, 2022).

Structures are written as SMILES. ≈ marks a conversion by molar mass, not a printed value. Calls of active or inactive are those of the source. No cut-off for these calls is given here.

A short description of data set [1]: Renal toxicity in cynomolgus monkey assessed as minimal thymic lymphoid depletion at >= 300 mg/kg/day measured for 14 days. Type of data set: organism-based, Macaca fascicularis. Particulars: in vivo, 336 h, time 14 day.
Data set [2] in a line: Half life in Beagle dog at 1 mg/kg, iv measured upto 24 hrs by LC-MS/MS analysis. Conditions: in vivo. It is filed as ADME, organism-based, Canis lupus familiaris.
Data set [3] is described as follows: Renal toxicity in cynomolgus monkey upto 500 mg/kg/day measured for 14 days. It is filed as organism-based, Macaca fascicularis. Particulars: in vivo, 336 h, time 14 day.
A short description of data set [4]: Half life in Sprague-Dawley rat at 1 mg/kg, iv measured upto 24 hrs by LC-MS/MS analysis. Type of data set: ADME, organism-based. Conditions: in vivo.
Data set [5] is described as follows: Kinetic solubility of compound. It is filed as physicochemical. Conditions: read-out: Kinetic_solubility.
Data set [6] in a line: Hepatic toxicity in cynomolgus monkey upto 500 mg/kg/day measured for 14 days. Particulars: in vivo, 336 h, time 14 day. It is filed as organism-based, Macaca fascicularis.
Data set [7] addresses T1, hERG (KCNH2) (Homo sapiens, UniProt Q12809). Put plainly: Inhibition of hERG at 10 uM relative to control. It is filed as toxicity. A general note: hERG is a cardiac potassium channel; its block is linked to QT prolongation.
Data set [8] is described as follows: Oral bioavailability in cynomolgus monkey at 1 mg/kg measured upto 24 hrs by LC-MS/MS analysis. It is filed as ADME, organism-based, Macaca fascicularis. Conditions: in vivo.
A short description of data set [9]: Plasma protein binding in mouse relative to control. It is filed as ADME, cell-free. Particulars: read-out: PPB (converted).
Data set [10] can be described thus: Volume of distribution at steady state in Beagle dog at 1 mg/kg, po or 1 mg/kg, iv measured upto 24 hrs by LC-MS/MS analysis. It is filed as ADME, organism-based, Canis lupus familiaris. Particulars: in vivo.
The nature of data set [11]: Volume of distribution at steady state in cynomolgus monkey at 1 mg/kg, po or 1 mg/kg, iv measured upto 24 hrs by LC-MS/MS analysis. Type of data set: ADME, organism-based, Macaca fascicularis. Particulars: in vivo.
The nature of data set [12]: Solubility of compound at pH 1.50 to 7.50 by RP-HPLC analysis. Particulars: buffer, pH 1.5. Type of data set: physicochemical.
Data set [13] is described as follows: Oral bioavailability in Beagle dog at 1 mg/kg measured upto 24 hrs by LC-MS/MS analysis. It is filed as ADME, organism-based, Canis lupus familiaris. Particulars: in vivo.
A short description of data set [14]: Half life in CD-1 mouse at 1 mg/kg, iv measured upto 24 hrs by LC-MS/MS analysis. It is filed as ADME, organism-based. Particulars: in vivo.
A short description of data set [15]: Volume of distribution at steady state in CD-1 mouse at 1 mg/kg, po or 1 mg/kg, iv measured upto 24 hrs by LC-MS/MS analysis. It is filed as ADME, organism-based. Particulars: in vivo.
Data set [16] in a line: Oral bioavailability in Sprague-Dawley rat at 1 mg/kg measured upto 24 hrs by LC-MS/MS analysis. Type of data set: ADME, organism-based. Particulars: in vivo.
Data set [17] in a line: Volume of distribution at steady state in Sprague-Dawley rat at 1 mg/kg, po or 1 mg/kg, iv measured upto 24 hrs by LC-MS/MS analysis. Type of data set: ADME, organism-based. Conditions: in vivo.
A short description of data set [18]: Half life in cynomolgus monkey at 1 mg/kg, iv measured upto 24 hrs by LC-MS/MS analysis. It is filed as ADME, organism-based, Macaca fascicularis. Conditions: in vivo.
Data set [19] is described as follows: Plasma protein binding in rat relative to control. It is filed as ADME, cell-free. Particulars: read-out: PPB (converted).
A short description of data set [20]: Oral bioavailability in CD-1 mouse at 1 mg/kg measured upto 24 hrs by LC-MS/MS analysis. It is filed as ADME, organism-based. Particulars: in vivo.
Data set [21] is described as follows: Apparent permeability across apical to basolateral side in dog MDCK cells. It is filed as ADME, cell-based, Canis lupus familiaris.
Data set [22] is described as follows: Plasma protein binding in human relative to control. Type of data set: ADME, cell-free. Particulars: read-out: PPB (converted).
Data set [23] is described as follows: Plasma protein binding in cynomolgus monkey relative to control. Type of data set: ADME, cell-free, Macaca fascicularis. Conditions: read-out: PPB (converted).
Data set [24] has as its target T1, hERG (KCNH2). Put plainly: Inhibition of hERG at 1 uM relative to control. Type of data set: toxicity.
The nature of data set [25]: Plasma protein binding in dog relative to control. Type of data set: ADME, cell-free, Canis lupus familiaris. Conditions: read-out: PPB (converted).
For the next data set, the system named is Rattus norvegicus. The experiment in a line: Anti-allodynic activity in MSU-induced Wistar rat gouty arthritis model assessed as mechanical allodynia at 50 mg/kg, iv administered once daily for 7 days and measured on day 2. Conditions: time 7.0 day. It is filed as functional, organism-based.
Data set [26] in a line: Cytotoxicity against human hepatocyte. Conditions: hepatocytes. Type of data set: toxicity, cell-based.
Data set [27] in a line: Renal toxicity in cynomolgus monkey assessed as increase in blood urea nitrogen at 100 to 300 mg/kg/day for 14 days. It is filed as organism-based, Macaca fascicularis. Conditions: in vivo, 336 h, dose 100-300 mg/kg/day, time 14 day.
The nature of data set [28]: Renal toxicity in cynomolgus monkey at 100 mg/kg/day for 14 days. It is filed as organism-based, Macaca fascicularis. Conditions: in vivo, 336 h, time 14 day.
Data set [29] is described as follows: Renal toxicity in cynomolgus monkey assessed as increase in kidney weight at 100 to 300 mg/kg/day for 14 days. It is filed as organism-based, Macaca fascicularis. Conditions: in vivo, 336 h, dose 100-300 mg/kg/day, time 14 day.
Data set [30] in a line: Renal toxicity in cynomolgus monkey assessed as retrograde nephropathy at 100 to 300 mg/kg/day for 14 days. Type of data set: organism-based, Macaca fascicularis. Particulars: in vivo, 336 h, dose 100-300 mg/kg/day, time 14 day.

T1 sequence (Q12809 whole entry): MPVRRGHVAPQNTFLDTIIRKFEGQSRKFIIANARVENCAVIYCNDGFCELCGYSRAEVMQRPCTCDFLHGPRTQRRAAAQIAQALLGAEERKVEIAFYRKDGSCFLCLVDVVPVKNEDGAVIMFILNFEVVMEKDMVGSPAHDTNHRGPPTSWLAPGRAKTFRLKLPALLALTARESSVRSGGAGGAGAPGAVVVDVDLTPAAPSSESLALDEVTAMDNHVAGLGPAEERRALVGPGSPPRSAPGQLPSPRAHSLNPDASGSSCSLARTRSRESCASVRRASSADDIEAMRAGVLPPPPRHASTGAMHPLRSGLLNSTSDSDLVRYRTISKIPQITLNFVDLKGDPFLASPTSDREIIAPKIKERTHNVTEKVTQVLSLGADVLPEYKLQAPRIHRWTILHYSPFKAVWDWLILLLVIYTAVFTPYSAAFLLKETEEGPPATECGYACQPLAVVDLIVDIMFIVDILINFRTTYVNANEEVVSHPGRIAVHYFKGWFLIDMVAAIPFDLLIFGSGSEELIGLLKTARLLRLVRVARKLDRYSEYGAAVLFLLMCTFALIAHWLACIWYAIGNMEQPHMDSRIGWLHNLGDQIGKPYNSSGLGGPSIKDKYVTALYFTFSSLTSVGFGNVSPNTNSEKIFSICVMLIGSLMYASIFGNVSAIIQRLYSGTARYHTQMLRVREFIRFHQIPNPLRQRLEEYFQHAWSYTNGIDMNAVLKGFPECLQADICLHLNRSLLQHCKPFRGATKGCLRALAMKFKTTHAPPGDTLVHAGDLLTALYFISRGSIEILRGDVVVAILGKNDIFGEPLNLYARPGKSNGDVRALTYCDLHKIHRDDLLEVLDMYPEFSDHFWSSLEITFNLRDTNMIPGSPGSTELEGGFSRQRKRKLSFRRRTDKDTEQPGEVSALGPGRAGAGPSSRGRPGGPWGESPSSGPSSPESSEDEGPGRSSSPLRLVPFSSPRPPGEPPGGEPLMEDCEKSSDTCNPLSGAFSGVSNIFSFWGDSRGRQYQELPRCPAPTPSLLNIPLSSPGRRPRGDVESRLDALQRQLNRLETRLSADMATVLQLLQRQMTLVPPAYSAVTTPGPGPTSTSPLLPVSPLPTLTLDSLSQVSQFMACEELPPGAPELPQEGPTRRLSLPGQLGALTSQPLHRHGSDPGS

One may read the half-life as the time in which the quantity being followed falls by half. Usually inhibition stands for the change of the read-out against control, counted positive when it falls. In general, bioavailability refers to the share of a dose that reaches the circulation, judged against a reference dose that is usually intravenous. The term Papp A→B denotes how fast a substance crosses the layer from the apical side. Turning to `CN[C@@H]1COc2c(S(=O)(=O)NC(=O)Nc3c4c(cc5c3CCC5)CCC4)cnn2C1`, the Activity result in data set [1], in data set [3] and in data set [6] was “Non-Toxic” throughout. The half-life in data set [2] is 0.99 h; in data set [4], 4.4 h; in data set [14] it was 1.2 h; in data set [18] it was 0.89 h. Further, the solubility kinetic at 24 h in data set [5] is 105 µM (≈ 45.3 µg/mL). Also, the inhibition at 10 µM against hERG (KCNH2) [7] was determined as 0.2%. Also, the bioavailability is 53% in data set [8], 78% in data set [13], 33% in [16] and 80% in data set [20]. Further, the fraction unbound in data set [9] was 0.024; in data set [19], 0.07; in [22], 0.044; in data set [23] it was 0.082; in data set [25], 0.114. Further, the Vdss amounted to 0.67 L/kg in [10], 0.18 L/kg in [11], 0.72 L/kg in data set [15] and 0.29 L/kg in data set [17]. In data set [12], the solubility result is on record as “Soluble”. Moreover, the Papp A→B in [21] amounted to 0.077 ×10⁻⁶ cm/s. In addition, the inhibition at 1 µM against hERG (KCNH2) [24] is -3.1%.

Consider `C=CC1=C(C(=O)O)N2C(=O)[C@@H](NC(=O)/C(=N\OCOC(=O)C(C)(C)C)c3csc(N)n3)C2SC1` (stereo partly drawn), for which, in the data set with Rattus norvegicus, the result was Active.

In general, IC50 refers to the concentration at which inhibition is half-maximal. As for `O=C(Nc1c2c(cc3c1CCC3)CCC2)NS(=O)(=O)c1cnn2c1OCCC2` [JT-001], the half-life was 2.9 h in data set [2], 1.1 h in [4], 1.9 h in data set [14] and 1.4 h in [18]. In addition, the solubility kinetic at 24 h in [5] was 102 µM (≈ 41.1 µg/mL). This molecule also registered an IC50 in data set [26] above 100 µM. Also, the inhibition at 10 µM at hERG (KCNH2) [7] is 9.7%. Also, the bioavailability in [8] turned out to be 17%; in data set [13] it was 28%; in data set [16], 30%; in [20] it was 18%. The Activity result in data set [27], in [28], in data set [29] and in [30] was “Toxic” throughout. The fraction unbound in data set [9] was 0.009; in data set [19], 0.014; in data set [22] it was 0.014; in data set [23], 0.04; in data set [25] it was 0.045. The Vdss in [10] came out at 0.2 L/kg; in data set [11], 0.08 L/kg; in data set [15], 0.2 L/kg; in data set [17], 0.2 L/kg. Further, in data set [12], the solubility result is “Soluble”. Also, the Papp A→B in [21] came out at 1.8 ×10⁻⁶ cm/s. Moreover, the inhibition at 1 µM on hERG (KCNH2) [24] turned out to be 4.1%.
